These results are taken from PubChem BioAssay (NCI).

Among the test systems are DU-145 prostate; MDA-MB-435; NCI/ADR-RES ovarian; T-47D breast.
What all share (assay): inhibition of tumour cell growth, NCI panel, 48 h

Where “and” joins values, the source holds several entries; their conditions need not be identical. Equal values may be shown once.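 Cells were grown in 96-well plates and exposed to each compound for 48 hours at five concentrations; endpoints were interpolated linearly between bracketing concentrations, or set to the highest concentration if not reached. GI50 marks 50% less growth. Definition used: TGI = concentration required for complete inhibition of growth.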 Some results are limits rather than exact numbers.

Consider `COc1ccc(-c2nn(-c3ccc(NC(=O)c4ccc(Cl)c(C(F)(F)F)c4)cc3)cc2-c2ccncc2)cc1Cl`, for which the GI50 with DU-145 prostate is 4.6 µM; in the assay on MDA-MB-435, 1.16 µM; with NCI/ADR-RES ovarian, 2.07 µM; in the assay on T-47D breast, 3.78 µM. Further, the TGI in the assay on DU-145 prostate, in the assay on MDA-MB-435, in the assay with NCI/ADR-RES ovarian and in the assay on T-47D breast was above 100 µM in each case.
With `O=C(/C=C/c1ccccc1)c1c[nH]c2ccccc2c1=O`, the GI50 was 1.57 µM in the assay on DU-145 prostate, 3.17 µM in the assay with MDA-MB-435, 2.93 µM in the assay on NCI/ADR-RES ovarian and 3.05 µM with T-47D breast. Also, the TGI in the assay with DU-145 prostate turned out to be 6.34 µM; in the assay with MDA-MB-435, 13.8 µM; in the assay with NCI/ADR-RES ovarian it was 13 µM; with T-47D breast, 17.1 µM.
With `Oc1c(C(Nc2cccc3ccccc23)c2ccccc2)ccc2cccnc12` (stereo not given), the GI50 in the assay with DU-145 prostate is 7.22 µM; in the assay on MDA-MB-435 it was 5 µM; in the assay on NCI/ADR-RES ovarian, 2.17 µM; in the assay with T-47D breast, 4.75 µM. Also, the TGI is above 100 µM with DU-145 prostate, above 100 µM with MDA-MB-435, 8.29 µM in the assay on NCI/ADR-RES ovarian and 58.3 µM in the assay with T-47D breast.
As for `N#CC(C#N)=Cc1c(-c2ccccc2)[nH]c2ccccc12`, the GI50 in the assay on DU-145 prostate was 3.2 µM; with MDA-MB-435, 0.248 µM; in the assay on NCI/ADR-RES ovarian it was 0.82 µM; in the assay on T-47D breast it was 4.23 µM. For the same compound, the TGI in the assay with DU-145 prostate is 17.9 µM; in the assay with MDA-MB-435, 0.736 µM; in the assay with NCI/ADR-RES ovarian it was above 45.2 µM; with T-47D breast it was above 95.1 µM.
Regarding `O=C(COc1ccc(/C=C2\Oc3ccccc3C2=O)cc1)Nc1nccs1`, the GI50 was 71 µM in the assay with DU-145 prostate, 8.47 µM in the assay with MDA-MB-435, 64.9 µM with NCI/ADR-RES ovarian and 75.4 µM in the assay on T-47D breast. Further, the TGI in the assay with DU-145 prostate, in the assay with MDA-MB-435, in the assay on NCI/ADR-RES ovarian and in the assay with T-47D breast was above 100 µM in each case.
Take `Cc1oc2nc[nH]c(=O)c2c1C(=O)/C=C/c1ccc(Cl)cc1`: the GI50 in the assay with DU-145 prostate was 2.82 µM; with MDA-MB-435 it was 2.4 µM; in the assay on NCI/ADR-RES ovarian, 2.44 µM; in the assay with T-47D breast it was 1.72 µM. Besides, the TGI in the assay on DU-145 prostate came out at 11.3 µM; in the assay on MDA-MB-435, 8.64 µM; with NCI/ADR-RES ovarian, 21 µM; in the assay on T-47D breast, 7.82 µM.
`CN(Cc1cnc(N)nc1N)c1ccc(C(=O)O)cc1`: the GI50 in the assay on DU-145 prostate, in the assay on MDA-MB-435, in the assay with NCI/ADR-RES ovarian and in the assay on T-47D breast was above 100 µM throughout. Also, the TGI in the assay on DU-145 prostate, in the assay with MDA-MB-435, in the assay on NCI/ADR-RES ovarian and in the assay on T-47D breast was above 100 µM throughout.
Turning to `COc1cc(NS(C)(=O)=O)ccc1Nc1c2ccccc2nc2c(C)cccc12`, the GI50 with DU-145 prostate is 0.145 µM and 0.163 µM; in the assay on MDA-MB-435, 0.626 µM and 1.44 µM; with NCI/ADR-RES ovarian it was 0.992 µM and 1.45 µM; with T-47D breast it was 0.111 µM and 0.109 µM. Further, the TGI with DU-145 prostate is 7 µM and 11.5 µM; in the assay with MDA-MB-435 it was 11.9 µM and 18.1 µM; in the assay with NCI/ADR-RES ovarian it was 76.1 µM and 54.9 µM; with T-47D breast, 4.05 µM and 5.71 µM.
For `COc1cccc(C(=O)Nc2ccc(CN3CCc4nc5cc(OC)c(OC)cc5cc43)cc2)c1`, the GI50 with DU-145 prostate is 4.55 µM; in the assay on MDA-MB-435 it was 3.47 µM; in the assay on NCI/ADR-RES ovarian, 4.48 µM; with T-47D breast, 4.49 µM. The TGI was 67.9 µM in the assay on DU-145 prostate, 19.3 µM in the assay with MDA-MB-435, above 100 µM in the assay on NCI/ADR-RES ovarian and 53.7 µM in the assay with T-47D breast.
On to `CN(CCC#N)c1ccc(/C=C(\C#N)c2cccc(C(F)(F)F)c2)cc1`, for which the GI50 with DU-145 prostate was 11.3 µM; in the assay on MDA-MB-435, 2.07 µM; with NCI/ADR-RES ovarian it was 3.68 µM; in the assay on T-47D breast, 2.25 µM. For the same compound, the TGI in the assay on DU-145 prostate is above 100 µM; with MDA-MB-435, 6 µM; with NCI/ADR-RES ovarian, above 100 µM; in the assay on T-47D breast, above 100 µM.
For `CC1=CC[C@@H]2C(C)(C)C(=O)CC[C@@]2(C)[C@@H]1COc1ccc2ccc(=O)oc2c1`, the GI50 in the assay on DU-145 prostate was 23.6 µM; in the assay on MDA-MB-435, 11.9 µM; in the assay with NCI/ADR-RES ovarian, 4.06 µM; in the assay on T-47D breast, 2.69 µM. The TGI turned out to be 93.6 µM in the assay on DU-145 prostate, 29.9 µM with MDA-MB-435, 19.9 µM in the assay with NCI/ADR-RES ovarian and 11.1 µM with T-47D breast.
As for `C=C1C(=O)O[C@H]2[C@H]1CC/C(Cn1cc(CNCCc3c[nH]c4ccc(Cl)cc34)nn1)=C\CC[C@@]1(C)O[C@@H]21`, the GI50 in the assay with DU-145 prostate was 5.95 µM; in the assay on MDA-MB-435, 6.09 µM; in the assay on NCI/ADR-RES ovarian, above 100 µM; in the assay on T-47D breast, 3.24 µM. In addition, the TGI in the assay with DU-145 prostate is 18.5 µM; in the assay on MDA-MB-435, 21 µM; in the assay with NCI/ADR-RES ovarian, above 100 µM; with T-47D breast it was 13.8 µM.
Turning to `COc1ccc2c(c1)[C@]1(C[C@H]1c1ccc3c(/C=C/c4ccc(CN5C[C@@H](C)O[C@@H](C)C5)cc4)n[nH]c3c1)C(=O)N2`, the GI50 with DU-145 prostate is 4.91 µM; in the assay on MDA-MB-435, 3.75 µM; with NCI/ADR-RES ovarian, 2.71 µM; in the assay with T-47D breast, 2.68 µM. In addition, the TGI in the assay with DU-145 prostate was 45.6 µM; with MDA-MB-435, 21.8 µM; in the assay with NCI/ADR-RES ovarian, 24.9 µM; in the assay with T-47D breast, above 86.9 µM.
With `COc1cc(/C=N/Nc2ncnc3c2cnn3C(C)C)ccc1O`, the GI50 in the assay on DU-145 prostate is 8.03 µM; in the assay on MDA-MB-435, 7.66 µM; in the assay with NCI/ADR-RES ovarian, 6.95 µM; with T-47D breast it was 5.31 µM. Also, the TGI in the assay on DU-145 prostate was above 25 µM; with MDA-MB-435 it was above 25 µM; in the assay with NCI/ADR-RES ovarian, above 25 µM; in the assay on T-47D breast, above 21.5 µM.
For `COc1cc2c(c(OC)c1OC)C(=O)CC(c1cccc(NC(=O)c3ccc(Br)cc3)c1)O2` (stereo not given), the GI50 is 2.85 µM in the assay on DU-145 prostate, 1.46 µM with MDA-MB-435, 2.41 µM in the assay on NCI/ADR-RES ovarian and 1.41 µM in the assay on T-47D breast. Also, the TGI in the assay with DU-145 prostate is above 100 µM; in the assay with MDA-MB-435 it was 4.46 µM; in the assay with NCI/ADR-RES ovarian it was 9.45 µM; in the assay on T-47D breast it was 5.98 µM.
As to `O=C(Cn1c(=O)c(-c2ccccc2)nc2ccccc21)c1ccc(Cl)cc1`, the GI50 in the assay with DU-145 prostate was 52.2 µM; in the assay with MDA-MB-435 it was above 100 µM; with NCI/ADR-RES ovarian, 48 µM; in the assay with T-47D breast, above 100 µM. In addition, the TGI in the assay with DU-145 prostate, with MDA-MB-435, in the assay on NCI/ADR-RES ovarian and in the assay on T-47D breast was above 100 µM throughout.
For the compound `CCN(CC)C(=O)CC1=C(C)/C(=C/c2[nH]c(-c3ccc[nH]3)cc2OC)N=C1C`, the GI50 with DU-145 prostate was 0.546 µM; in the assay on MDA-MB-435, 0.412 µM; with NCI/ADR-RES ovarian it was 0.563 µM; in the assay with T-47D breast it was 0.272 µM. In addition, the TGI in the assay on DU-145 prostate was above 100 µM; with MDA-MB-435, 14.6 µM; in the assay with NCI/ADR-RES ovarian it was 14.8 µM; with T-47D breast, 13.1 µM.
As to `O=[N+]([O-])c1cc([N+](=O)[O-])c(Cl)c(Cl)c1Cl`, the GI50 in the assay with DU-145 prostate is 1.57 µM; with MDA-MB-435, 1.72 µM; in the assay on NCI/ADR-RES ovarian it was 2.87 µM; in the assay with T-47D breast, 0.631 µM. The TGI is 2.98 µM with DU-145 prostate, 3.33 µM in the assay with MDA-MB-435, above 100 µM in the assay with NCI/ADR-RES ovarian and 2.84 µM in the assay with T-47D breast.
Take `CN1CCN(CCCOc2cccc3nc(Nc4ccc(Cl)c(F)c4)ccc23)CC1`: the GI50 is 1.75 µM in the assay on DU-145 prostate, 1.61 µM in the assay with MDA-MB-435, 1.8 µM in the assay on NCI/ADR-RES ovarian and 1.78 µM with T-47D breast. Also, the TGI in the assay on DU-145 prostate is 3.19 µM; in the assay with MDA-MB-435, 3.14 µM; in the assay with NCI/ADR-RES ovarian it was 3.77 µM; in the assay with T-47D breast, 4.02 µM.
For `NC(=O)c1cc(-c2ccncc2)cc(-c2ccccc2)c1N`, the GI50 in the assay on DU-145 prostate is above 22.9 µM; in the assay with MDA-MB-435 it was above 25 µM; with NCI/ADR-RES ovarian, above 21 µM; in the assay with T-47D breast, 9.57 µM. Besides, the TGI in the assay with DU-145 prostate, with MDA-MB-435, in the assay on NCI/ADR-RES ovarian and in the assay on T-47D breast was above 25 µM throughout.
`COc1ccc(Cl)cc1Nc1nc(C(F)(F)F)ccc1C(=O)N/N=C/c1ccc([N+](=O)[O-])cc1`: the GI50 with DU-145 prostate was 1.27 µM; with MDA-MB-435, 2.66 µM; with NCI/ADR-RES ovarian, 2.25 µM; in the assay on T-47D breast, 1.81 µM. The TGI with DU-145 prostate is 3.21 µM; with MDA-MB-435, 13.1 µM; with NCI/ADR-RES ovarian it was 6.7 µM; with T-47D breast it was 7.75 µM.
Take `O=C(/C=C1\C(=O)N(Cc2ccc([N+](=O)[O-])cc2)c2ccccc21)c1ccc(OCCN2CCCCC2)cc1`: the GI50 in the assay with DU-145 prostate was 1.56 µM; in the assay with MDA-MB-435 it was 1.2 µM; in the assay with NCI/ADR-RES ovarian, 2.04 µM. The values for the TGI in the assay on DU-145 prostate, in the assay on MDA-MB-435 and in the assay with NCI/ADR-RES ovarian were 2.93 µM, 2.52 µM and 5.76 µM, respectively.
With `O=C(/C=C/C12c3ccccc3C(c3ccccc31)C1C(=O)N(c3ccccc3)C(=O)C12)c1ccc(Cl)cc1` (stereo not given), the figures for the GI50 in the assay on DU-145 prostate, with MDA-MB-435 and in the assay on NCI/ADR-RES ovarian were 1.77 µM, 1.93 µM and 2.16 µM, respectively. For the same compound, the figures for the TGI with DU-145 prostate, in the assay with MDA-MB-435 and in the assay on NCI/ADR-RES ovarian were 4.03 µM, 5.39 µM and 8.47 µM, respectively.
